In ChEMBL document CHEMBL4014333, “Discovery of Small Molecules for Repressing Cap-Independent Translation of Human Vascular Endothelial Growth Factor (hVEGF) as Novel Antitumor Agents” (J Med Chem, 2017):
Calls of active or inactive are those of the source. No cut-off for these calls is given here.

Columns and labels:
Homo sapiens [1] = organism: Homo sapiens; experiment: Binding affinity to internal ribosome entry site A RNA G-quadruplex region of VEGF-A protein in human MDA-MB-231 cells assessed as inhibition of VEGF-A protein induced cell migration at 0.5 to 8 uM after 4 hrs by RTCA method; assay type: cell-based
Homo sapiens [2] = organism: Homo sapiens; experiment: Binding affinity to internal ribosome entry site A RNA G-quadruplex region of VEGF-A protein in human MDA-MB-231 cells assessed as inhibition of VEGF-A protein induced cell migration at 0.5 to 8 uM after 10 hrs by RTCA method; assay type: cell-based
Homo sapiens [3] = organism: Homo sapiens; experiment: Binding affinity to internal ribosome entry site A RNA G-quadruplex region of human VEGF-A 5'-UTR at 10 uM by PCR stop assay
MCF7 [4] = experiment: Cytotoxicity against human MCF7 cells assessed as reduction in cell viability; assay type: cell-based
[5] = Binding affinity to 5'- FAM-labeled wild type human internal ribosome entry site A RNA G-quadruplex after 5 mins by MST analysis
[6] = Binding affinity to 5'- FAM-labeled human 5'-UGAUGAGUGUGAGGAGGA-3' RNA G-quadruplex after 5 mins by MST analysis
[7] = Binding affinity to 5'- FAM-labeled 5'-GGAGGAGGGGGAGGAGGA-3' DNA (unknown origin) up to 60 uM after 5 mins by MST analysis
[8] = Binding affinity to C-kit 1 DNA G-quadruplex (unknown origin) at 1 uM after 24 hrs by spectrophotometric method
[9] = Binding affinity to TBA DNA G-quadruplex (unknown origin) at 1 uM after 24 hrs by spectrophotometric method
Homo sapiens [10] = organism: Homo sapiens; experiment: Binding affinity to human 5'-AGGAGCCGCAGCCGGAAGAGGAGAGGGGGCCGC-3' DNA at 1 uM after 24 hrs by spectrophotometric method
[11] = Binding affinity to ADAM10 RNA G-quadruplex (unknown origin) at 1 uM after 24 hrs by spectrophotometric method
[12] = Binding affinity to TERRA RNA G-quadruplex (unknown origin) at 1 uM after 24 hrs by spectrophotometric method
[13] = Binding affinity to NRAS-RNA G-quadruplex (unknown origin) at 1 uM after 24 hrs by spectrophotometric method
[14] = Binding affinity to BCL-2 RNA G-quadruplex (unknown origin) at 1 uM after 24 hrs by spectrophotometric method
Homo sapiens [15] = organism: Homo sapiens; experiment: Binding affinity to human 5'-UGAUGAGUGUGAGUAGUA-3' RNA at 1 uM after 24 hrs by spectrophotometric method
Homo sapiens [16] = organism: Homo sapiens; experiment: Binding affinity to wild type human internal ribosome entry site A RNA G-quadruplex at 1 uM after 24 hrs by spectrophotometric method
Homo sapiens [17] = organism: Homo sapiens; experiment: Destabilization of human VEGF-A promoter DNA up to 5 uM by CD spectral analysis
Homo sapiens [18] = organism: Homo sapiens; experiment: Destabilization of human wild type internal ribosome entry site A RNA G-quadruplex assessed as melting temperature at 5 uM by CD spectra method (reference value: 80.9 +/- 0.8 degreeC)
[19] = Selectivity ratio of Kd for biotin-labeled hairpin DNA (unknown origin) to Kd for biotin-labeled human wild type internal ribosome entry site A RNA G-quadruplex
Homo sapiens [20] = organism: Homo sapiens; experiment: Inhibition of BG4 antibody binding to biotin-labeled human wild type internal ribosome entry site A RNA G-quadruplex at 1.25 to 10 uM after 3 hrs by filter binding assay
Homo sapiens [21] = organism: Homo sapiens; experiment: Inhibition of FLAG-labeled BG4 antibody binding to human wild type internal ribosome entry site A RNA G-quadruplex at 1.25 to 10 uM preincubated with RNA followed by antibody addition by pull-down assay
Homo sapiens [22] = organism: Homo sapiens; experiment: Inhibition of NT-647 dye-labeled BG4 antibody binding to human 5'-UGAUGAGUGUGAGUAGUA-3' RNA by MST analysis
Homo sapiens [23] = organism: Homo sapiens; experiment: Inhibition of BG4 antibody binding to internal ribosome entry site A RNA G-quadruplex in human MCF7 cells preincubated for 24 hrs followed by BG4 antibody addition measured after 12 hrs by dot blot hybridization assay; assay type: cell-based
Homo sapiens [24] = organism: Homo sapiens; experiment: Inhibition of BG4 protein binding to human wild type internal ribosome entry site A RNA G-quadruplex in MCF7 cells transfected with pcDNA3.1-BG4 plasmid at 2.5 to 5 uM after 24 hrs by RT-PCR analysis; assay type: cell-based
Homo sapiens [25] = organism: Homo sapiens; experiment: Inhibition of BG4 protein binding to human wild type internal ribosome entry site A RNA G-quadruplex in MCF7 cells transfected with pcDNA3.1-BG4 plasmid at 2.5 to 5 uM after 24 hrs by qRT-PCR analysis; assay type: cell-based
MCF7 [26] = experiment: Cytotoxicity against human MCF7 cells after 24 hrs relative to control; assay type: cell-based; conditions: mcf7, 24 h
Homo sapiens [27] = organism: Homo sapiens; experiment: Destabilization of human wild type internal ribosome entry site A RNA G-quadruplex expressed in MCF7 cells assessed as down regulation of VEGF-A translation at 1.5 uM after 24 hrs by dual-luciferase reporter gene assay relative to control; assay type: cell-based
Homo sapiens [28] = organism: Homo sapiens; experiment: Destabilization of human 5'-UGAAGAGUGUGAGUAGUA-3' RNA expressed in MCF7 cells assessed as down regulation of VEGF-A translation at up to 1.5 uM after 24 hrs by dual-luciferase reporter gene assay; assay type: cell-based
Homo sapiens [29] = organism: Homo sapiens; experiment: Destabilization of human 5'-UGAUGAGUGUGAGUAGUA-3' RNA expressed in MCF7 cells assessed as down regulation of VEGF-A translation at 0.1875 to 1.5 uM after 24 hrs by dual-luciferase reporter gene assay; assay type: cell-based
Homo sapiens [30] = organism: Homo sapiens; experiment: Destabilization of human wild type internal ribosome entry site A RNA G-quadruplex expressed in human MCF7 cells assessed as decrease in VEGF-A protein expression at 1.5 uM after 48 hrs by ELISA relative to control; assay type: cell-based; parameters: scale not given: the % may be the effect or the level left
Homo sapiens [31] = organism: Homo sapiens; experiment: Destabilization of human wild type internal ribosome entry site A RNA G-quadruplex expression in human MCF7 cells assessed as decrease in VEGF-A protein expression at 0.1875 to 3 uM by Western blot analysis; assay type: cell-based
MCF7 [32] = experiment: Effect on human VEGF-A transcription expressed in human MCF7 cells assessed as Met luciferase gene expression at 0.1875 to 3 uM by RT-PCR analysis; assay type: functional, cell-based
MCF7 [33] = experiment: Effect on human VEGF-A transcription expressed in human MCF7 cells assessed as Met luciferase gene expression at 0.1875 to 3 uM by qRT-PCR analysis; assay type: functional, cell-based
Homo sapiens [34] = organism: Homo sapiens; experiment: Binding affinity to internal ribosome entry site A RNA G-quadruplex region of VEGF-A protein in human MDA-MB-231 cells assessed as VEGF-A protein induced cell migration at 3 uM after 24 hrs by MTT dye based Transwell assay relative to control
MCF7 [35] = experiment: Antitumor activity against human MCF7 cells xenografted in nude Balb/c mouse assessed as reduction in tumor weight at 7.5 mg/kg, ip qd for 20 days relative to control; assay type: functional; parameters: scale not given: the % may be the effect or the level left
[36] = Binding affinity to 5'- FAM-labeled c-Kit1 G-quadruplex DNA (unknown origin) up to 100 uM after 5 mins by MST analysis
MCF7 [37] = experiment: Effect on BG4 protein expression in human MCF7 cells up to 1.5 uM by Western blot method; assay type: ADME, cell-based

Structure (SMILES): CCN(CC)CCOc1ccc(Nc2nc(-c3ccccc3NC(=O)CCN3CCN(C)CC3)nc3ccccc23)cc1
- Activity (Homo sapiens [1]): Active
- Activity (Homo sapiens [2]): inactive
- Activity (Homo sapiens [3]): inactive
- IC50 (MCF7 [4]): 12.5 µM
- Kd [5]: 1.29 µM
- Kd [6]: 13.4 to 20.5 µM
- Activity [7]: Active
- Activity [8]: inactive
- Activity [9]: inactive
- Activity (Homo sapiens [10]): inactive
- Activity [11]: inactive
- Activity [12]: inactive
- Activity [13]: inactive
- Activity [14]: inactive
- Activity (Homo sapiens [15]): inactive
- Activity (Homo sapiens [16]): Active
- Activity (Homo sapiens [17]): Active
- Tm (Homo sapiens [18]): 62.2 °C
- Selectivity ratio [19]: 23
- inhibition (Homo sapiens [20]): Active
- inhibition (Homo sapiens [21]): Active
- inhibition (Homo sapiens [22]): Active
- inhibition (Homo sapiens [23]): Dose-dependent effect
- inhibition (Homo sapiens [24]): Active
- inhibition (Homo sapiens [25]): Active
- Activity (MCF7 [26]): 65.5%
- Activity (Homo sapiens [27]): 80%
- Activity (Homo sapiens [28]): inactive
- Activity (Homo sapiens [29]): inactive
- Activity (Homo sapiens [30]): 75%
- Activity (Homo sapiens [31]): Active
- Activity (MCF7 [32]): inactive
- Activity (MCF7 [33]): inactive
- Activity (Homo sapiens [34]): 25%
- Activity (MCF7 [35]): 60.1%
- Activity [36]: Active
- Activity (MCF7 [37]): Non-Toxic
